According to PubChem BioAssay (NCI):
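48-hour exposure; five concentrations; linearly interpolated endpoints. Here, GI50 denotes the concentration required for 50% inhibition of growth. TGI: concentration producing complete growth inhibition.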

Experiments:
Test in all cases: NCI anticancer screen, dose series, 48 h
SF-268 CNS = system: SF-268 CNS
ACHN renal = system: ACHN renal
SR leukemia = system: SR leukemia
UACC-257 melanoma = system: UACC-257 melanoma
SK-MEL-2 melanoma = system: SK-MEL-2 melanoma
SF-295 CNS = system: SF-295 CNS
HCT-15 colon = system: HCT-15 colon
M14 melanoma = system: M14 melanoma
LOX IMVI melanoma = system: LOX IMVI melanoma
UACC-62 melanoma = system: UACC-62 melanoma
SW-620 colon = system: SW-620 colon
HL-60(TB) leukemia = system: HL-60(TB) leukemia
NCI-H23 lung = system: NCI-H23 lung
HT29 colon = system: HT29 colon
NCI-H460 lung = system: NCI-H460 lung
NCI-H226 lung = system: NCI-H226 lung
SNB-75 CNS = system: SNB-75 CNS
HS 578T breast = system: HS 578T breast
K-562 leukemia = system: K-562 leukemia
T-47D breast = system: T-47D breast
SK-MEL-28 melanoma = system: SK-MEL-28 melanoma
MALME-3M melanoma = system: MALME-3M melanoma
OVCAR-5 ovarian = system: OVCAR-5 ovarian
NCI/ADR-RES ovarian = system: NCI/ADR-RES ovarian
SK-MEL-5 melanoma = system: SK-MEL-5 melanoma
COLO 205 colon = system: COLO 205 colon
UO-31 renal = system: UO-31 renal
OVCAR-8 ovarian = system: OVCAR-8 ovarian
MCF7 breast = system: MCF7 breast
786-0 renal = system: 786-0 renal
A549 NSCLC = system: A549 NSCLC
PC-3 prostate = system: PC-3 prostate
OVCAR-3 ovarian = system: OVCAR-3 ovarian
RXF 393 renal = system: RXF 393 renal
TK-10 renal = system: TK-10 renal
DU-145 prostate = system: DU-145 prostate
NCI-H522 lung = system: NCI-H522 lung
RPMI-8226 leukemia = system: RPMI-8226 leukemia
MDA-MB-435 = system: MDA-MB-435
KM12 colon = system: KM12 colon
SK-OV-3 ovarian = system: SK-OV-3 ovarian
IGROV1 ovarian = system: IGROV1 ovarian
U251 CNS = system: U251 CNS
MDA-MB-231 breast = system: MDA-MB-231 breast
SN12C renal = system: SN12C renal
HCT-116 colon = system: HCT-116 colon
SNB-19 CNS = system: SNB-19 CNS
MOLT-4 leukemia = system: MOLT-4 leukemia
OVCAR-4 ovarian = system: OVCAR-4 ovarian

Work on `Cc1cc(N(CCCCl)CCCCl)ccc1C=Nc1cccc(Cl)c1` yielded a TGI (SF-268 CNS) of 48.4 µM, a TGI (ACHN renal) of 25.8 µM and a TGI (SR leukemia) of 24 µM. It also gave a TGI (UACC-257 melanoma) of 20.2 µM, a TGI (SK-MEL-2 melanoma) of 36.5 µM and a TGI (SF-295 CNS) of 43.5 µM. It also gave a TGI (HCT-15 colon) of 30.2 µM, a TGI (M14 melanoma) of 60.5 µM and a TGI (LOX IMVI melanoma) of 26.7 µM. The TGI (UACC-62 melanoma) was 7.28 µM, the TGI (SW-620 colon) was 25.4 µM and the TGI (HL-60(TB) leukemia) was 38 µM. The TGI (NCI-H23 lung) was 27.7 µM, the TGI (HT29 colon) was 27.7 µM and the TGI (NCI-H460 lung) was 22.6 µM. For the same molecule, the TGI (NCI-H226 lung) was 0.562 µM, the TGI (SNB-75 CNS) was 24.7 µM and the TGI (HS 578T breast) was 36.2 µM. The TGI (K-562 leukemia) was 22.7 µM, the TGI (T-47D breast) was 24.1 µM and the TGI (SK-MEL-28 melanoma) was 41.5 µM. It also gave a TGI (MALME-3M melanoma) of 22.8 µM, a TGI (OVCAR-5 ovarian) of 12.6 µM and a TGI (NCI/ADR-RES ovarian) of 33.4 µM. It also gave a TGI (SK-MEL-5 melanoma) of 27.4 µM, a TGI (COLO 205 colon) of 23.6 µM and a TGI (UO-31 renal) of 44.2 µM. The TGI (OVCAR-8 ovarian) was 24.3 µM, the TGI (MCF7 breast) was 49.9 µM and the TGI (786-0 renal) was 43.2 µM. It also gave a TGI (A549 NSCLC) of 24.7 µM, a TGI (PC-3 prostate) of 25.9 µM and a TGI (OVCAR-3 ovarian) of 33.5 µM. For the same molecule, the TGI (RXF 393 renal) was 35.5 µM, the TGI (TK-10 renal) was 27.5 µM and the TGI (DU-145 prostate) was 27.9 µM. For the same molecule, the TGI (NCI-H522 lung) was 43.7 µM, the TGI (RPMI-8226 leukemia) was 0.231 µM and the TGI (MDA-MB-435) was 36.2 µM. It also gave a TGI (KM12 colon) of 26.3 µM, a TGI (SK-OV-3 ovarian) of 61.7 µM and a TGI (IGROV1 ovarian) of 35 µM. For the same molecule, the TGI (U251 CNS) was 32.2 µM, the TGI (MDA-MB-231 breast) was 29.3 µM and the TGI (SN12C renal) was 37.1 µM. It also gave a TGI (HCT-116 colon) greater than 100 µM, a TGI (SNB-19 CNS) of 34.6 µM and a TGI (MOLT-4 leukemia) of 21.2 µM. It also gave a TGI (OVCAR-4 ovarian) of 26.4 µM.

`Cc1ccc(-c2cc3nc(C(Cl)Cl)nc(-c4cccnc4)n3n2)cc1` showed a GI50 (SR leukemia) of 0.495 µM, a TGI (SR leukemia) greater than 100 µM and a GI50 (HT29 colon) of 0.652 µM. For the same molecule, the TGI (HT29 colon) was greater than 100 µM, the GI50 (K-562 leukemia) was 2.01 µM and the TGI (K-562 leukemia) was greater than 100 µM. It also gave a GI50 (OVCAR-8 ovarian) of 1.48 µM, a TGI (OVCAR-8 ovarian) greater than 100 µM and a GI50 (MCF7 breast) of 2.01 µM. The TGI (MCF7 breast) was greater than 100 µM, the GI50 (DU-145 prostate) was 0.548 µM and the TGI (DU-145 prostate) was 3.79 µM. The GI50 (MOLT-4 leukemia) was 1.83 µM and the TGI (MOLT-4 leukemia) was greater than 100 µM.

`O=C(O)c1cc(-c2ccc(-c3ccc(-c4cc(C(=O)O)c5cc(Cl)ccc5n4)cc3)cc2)nc2ccc(Cl)cc12` showed a GI50 (SF-268 CNS) of 94.7 µM, a GI50 (SK-MEL-2 melanoma) of 56 µM and a GI50 (HCT-15 colon) of 67.2 µM. It also gave a GI50 (T-47D breast) of 50.9 µM, a GI50 (UO-31 renal) of 32.5 µM and a GI50 (OVCAR-3 ovarian) of 48.8 µM. The GI50 (RXF 393 renal) was 77.9 µM, the GI50 (NCI-H522 lung) was 79.8 µM and the GI50 (U251 CNS) was 40.9 µM. The GI50 (MDA-MB-231 breast) was 46.5 µM and the GI50 (HCT-116 colon) was 52.4 µM.
